# Source: PubChem BioAssay (NCI)
#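 96-well plates; 48 h exposure; 5 concentrations. Endpoints by linear interpolation between flanking doses. Not reached: highest tested concentration assigned. TGI: concentration producing complete growth inhibition.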
# Assays:
# Assay in all cases: NCI-60 cell line screen, 48 h
# K-562 leukemia = test system: K-562 leukemia
# HOP-92 NSCLC = test system: HOP-92 NSCLC
# NCI-H226 lung = test system: NCI-H226 lung
# COLO 205 colon = test system: COLO 205 colon
# NCI-H460 lung = test system: NCI-H460 lung
# 786-0 renal = test system: 786-0 renal
# MDA-MB-231 breast = test system: MDA-MB-231 breast
# DU-145 prostate = test system: DU-145 prostate
# OVCAR-5 ovarian = test system: OVCAR-5 ovarian
# HT29 colon = test system: HT29 colon
SMILES,TGI (K-562 leukemia) [µM],TGI (HOP-92 NSCLC) [µM],TGI (NCI-H226 lung) [µM],TGI (COLO 205 colon) [µM],TGI (NCI-H460 lung) [µM],TGI (786-0 renal) [µM],TGI (MDA-MB-231 breast) [µM],TGI (DU-145 prostate) [µM],TGI (OVCAR-5 ovarian) [µM],TGI (HT29 colon) [µM]
O=C(NCCCCNCCCNC(=O)c1ccccc1)c1ccccc1,> 100,> 100,> 100,> 100,> 100,> 100,> 100,> 100,> 100,> 100
Nc1ccc(-c2nc3cc(F)ccc3s2)cc1I,> 100,39.3,21,> 100,23.7,32,30.4,> 100,43,> 100
COc1cc(/C=C2\N=C(c3ccccc3)N(/N=C3\C(=O)Nc4ccccc43)C2=O)cc(OC)c1OC,> 100,> 100,> 100,> 100,> 100,> 100,> 100,> 100,> 100,> 100
S=c1nc2[nH]c3ccc(Br)cc3c2n[nH]1,> 100,> 100,> 100,> 100,> 100,> 100,> 100,> 100,> 100,> 100
